Active and inactive are the calls of the source.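 Rule for the calls: active = mean IC50 below 20 µM in each of the two panels, so potent in both; inactive = the rest.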

In this assay the target is Neuropilin-1 (Homo sapiens) (UniProt O14786). The assay can be described thus: blockers of CendR peptide binding to NRP-1 – biochemical, FP and AlphaScreen panel, dose response (AID 651650). Conditions: NRP-1 b1b2 / RPARPAR peptide binding, FP or AlphaScreen. In general terms: In Alpha technology, singlet oxygen from a donor bead excites a nearby acceptor bead.
The mark [1] stands for this setting: AlphaScreen, run 1, individual panel run IC50.
Where [2] appears, read: FP, run 1, individual panel run IC50.
Where [3] appears, read: FP, run 2, individual panel run IC50.

Sequence of Neuropilin-1 (Homo sapiens) (O14786 whole entry, looked up): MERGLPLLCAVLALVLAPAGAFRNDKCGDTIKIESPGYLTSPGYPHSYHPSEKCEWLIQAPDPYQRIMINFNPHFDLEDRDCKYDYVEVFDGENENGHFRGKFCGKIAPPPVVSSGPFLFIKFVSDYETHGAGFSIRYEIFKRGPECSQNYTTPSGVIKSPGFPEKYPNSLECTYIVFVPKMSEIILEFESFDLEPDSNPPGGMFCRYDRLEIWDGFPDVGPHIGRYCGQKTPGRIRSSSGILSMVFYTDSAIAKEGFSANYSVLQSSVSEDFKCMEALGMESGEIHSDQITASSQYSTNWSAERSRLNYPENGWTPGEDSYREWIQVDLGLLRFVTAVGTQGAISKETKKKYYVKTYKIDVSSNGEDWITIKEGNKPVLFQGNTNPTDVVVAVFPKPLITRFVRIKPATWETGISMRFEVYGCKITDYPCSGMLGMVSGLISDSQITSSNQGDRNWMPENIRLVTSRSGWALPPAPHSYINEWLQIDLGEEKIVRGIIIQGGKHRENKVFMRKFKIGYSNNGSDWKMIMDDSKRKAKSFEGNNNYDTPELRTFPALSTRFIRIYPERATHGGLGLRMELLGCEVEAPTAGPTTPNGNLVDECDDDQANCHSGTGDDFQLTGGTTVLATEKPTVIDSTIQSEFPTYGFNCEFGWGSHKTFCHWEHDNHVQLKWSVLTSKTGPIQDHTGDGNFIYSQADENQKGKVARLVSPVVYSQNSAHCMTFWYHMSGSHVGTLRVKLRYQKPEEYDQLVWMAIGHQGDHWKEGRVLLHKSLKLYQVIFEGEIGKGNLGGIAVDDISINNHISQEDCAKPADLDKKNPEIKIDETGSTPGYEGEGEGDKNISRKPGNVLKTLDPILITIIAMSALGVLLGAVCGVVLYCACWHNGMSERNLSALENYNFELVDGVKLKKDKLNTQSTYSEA

As a reminder, the IC50 is the point on the concentration scale where inhibition reaches its midpoint. Consider `Cc1cc2cc(CNC(=O)c3ccco3)ccc2n1C`, for which the IC50 was > 100 µM (inactive) (AlphaScreen, mean of runs); > 100 µM under setting [1]; > 95 µM (inactive) (FP, mean of runs); > 95 µM under setting [2]; > 95 µM under setting [3].
For the compound `O=C1C=CC(=O)C2C1C1(Cl)C(Cl)=C(Cl)C2(Cl)C1(Cl)Cl` (stereo not given), the IC50 is, setting by setting: (AlphaScreen, mean of runs) > 100 µM (inactive); under setting [1], > 100 µM; (FP, mean of runs) > 95 µM (inactive); under setting [2], > 95 µM; under setting [3], > 95 µM.
With `O=C(OCn1nnc2ccccc2c1=O)c1ccc(Br)o1`, the IC50 is, setting by setting: (AlphaScreen, mean of runs) > 100 µM (inactive); under setting [1], > 100 µM; (FP, mean of runs) > 95 µM (inactive); under setting [2], > 95 µM; under setting [3], > 95 µM.
Regarding `O=C(COc1cc(Cl)c(Cl)cc1Cl)Nc1ccc([N+](=O)[O-])cc1Cl`, the IC50 (AlphaScreen, mean of runs) is > 100 µM (inactive); the IC50 under setting [1] was > 100 µM; the IC50 (FP, mean of runs) was > 95 µM (inactive); the concentration for half-maximal inhibition (IC50) under setting [2] is > 95 µM; the IC50 under setting [3] is > 95 µM.
Regarding `CC(=O)Nc1ccccc1OCC(=O)N(Cc1ccccc1)C(C)C`, the IC50 by setting is: (AlphaScreen, mean of runs) > 100 µM (inactive); under setting [1], > 100 µM; (FP, mean of runs) > 95 µM (inactive); under setting [2], > 95 µM; under setting [3], > 95 µM.
Take `CC(C)NC(=O)c1c(CSc2ccccc2)noc1C(=O)NCc1ccccc1`: the IC50 is, setting by setting: (AlphaScreen, mean of runs) > 100 µM (inactive); under setting [1], > 100 µM; (FP, mean of runs) > 95 µM (inactive); under setting [2], > 95 µM; under setting [3], > 95 µM.
Regarding `OCCC1CCCCN1CC(O)COCc1ccc(Cl)cc1` (stereo not given), the IC50 is > 100 µM (inactive) (AlphaScreen, mean of runs); > 100 µM under setting [1]; > 95 µM (inactive) (FP, mean of runs); > 95 µM under setting [2]; > 95 µM under setting [3].
`CCOc1ccc(-n2c(Cc3cc(=O)[nH]c(=O)[nH]3)nnc2SC(C)C)cc1`: the IC50 (AlphaScreen, mean of runs) was > 100 µM (inactive); the concentration for half-maximal inhibition (IC50) under setting [1] is > 100 µM; the IC50 (FP, mean of runs) is > 95 µM (inactive); the IC50 under setting [2] is > 95 µM; the IC50 under setting [3] was > 95 µM.
For `C[C@@H](NC(=O)c1nc[nH]c1C(=O)NCc1ccccc1)c1ccccc1`, the IC50 by setting is: (AlphaScreen, mean of runs) > 100 µM (inactive); under setting [1], > 100 µM; (FP, mean of runs) > 95 µM (inactive); under setting [2], > 95 µM; under setting [3], > 95 µM.
With `C=C1CCN([C@@H](CC(C)C)C(=O)NCCC(C)C)S(=O)(=O)c2ccccc21`, the IC50 is, setting by setting: (AlphaScreen, mean of runs) > 100 µM (inactive); under setting [1], > 100 µM; (FP, mean of runs) > 95 µM (inactive); under setting [2], > 95 µM; under setting [3], > 95 µM.
As to `C=C1C[C@@]23CCC4[C@@](C)(CCC[C@@]4(C)C(=O)O)C2CC[C@]1(O)C3` (stereo not given in full), the IC50 is, setting by setting: (AlphaScreen, mean of runs) > 100 µM (inactive); under setting [1], > 100 µM; (FP, mean of runs) > 95 µM (inactive); under setting [2], > 95 µM; under setting [3], > 95 µM.
With `Cc1ccc2cc(CN(c3ccccc3C)S(=O)(=O)c3ccccc3)c(=O)[nH]c2c1`, the IC50 is > 100 µM (inactive) (AlphaScreen, mean of runs); > 100 µM under setting [1]; > 95 µM (inactive) (FP, mean of runs); > 95 µM under setting [2]; > 95 µM under setting [3].
With `O=C(Nc1cc(C(F)(F)F)ccc1N1CCCC1)C1CC(=O)N(Cc2ccccc2)C1` (stereo not given), the IC50 was > 100 µM (inactive) (AlphaScreen, mean of runs); > 100 µM under setting [1]; > 95 µM (inactive) (FP, mean of runs); > 95 µM under setting [2]; > 95 µM under setting [3].
`Oc1ccccc1-c1ccn[nH]1`: the IC50 by setting is: (AlphaScreen, mean of runs) > 100 µM (inactive); under setting [1], > 100 µM; (FP, mean of runs) > 95 µM (inactive); under setting [2], > 95 µM; under setting [3], > 95 µM.
Consider `CCOC(=O)C1=C(C)NC2=C(C(=O)CCC2)C1c1cn(Cc2ccc(Cl)cc2Cl)nc1-c1ccccc1` (stereo not given), for which the IC50 entry (AlphaScreen, mean of runs) is “inactive”. The half-maximal inhibitory concentration (IC50) is, setting by setting: under setting [1], 35.5 µM; (FP, mean of runs) > 95 µM (inactive); under setting [2], > 95 µM; under setting [3], > 95 µM.
As for `c1ccc2c(c1)CCCN2Cc1nnnn1CC1CCCO1` (stereo not given), the IC50 result (AlphaScreen, mean of runs) is “inactive” and the IC50 entry (FP, mean of runs) is “inactive”. For the same compound, the concentration for half-maximal inhibition (IC50) runs as follows: under setting [1], 25.8 µM; under setting [2], 33.9 µM; under setting [3], > 95 µM.
Turning to `CCCn1c(C)cc(C(=O)CSc2nc3nc(C)cc(C)n3n2)c1C`, the IC50 was > 100 µM (inactive) (AlphaScreen, mean of runs); > 100 µM under setting [1]; > 95 µM (inactive) (FP, mean of runs); > 95 µM under setting [2]; > 95 µM under setting [3].
Take `O=C(NCCOC(=O)c1ccccc1)c1ccccc1`: under “AlphaScreen, mean of runs”, the IC50 result was “inactive”. In addition, the IC50 under setting [1] amounted to 45.3 µM; the IC50 (FP, mean of runs) was > 95 µM (inactive); the concentration for half-maximal inhibition (IC50) under setting [2] was > 95 µM; the concentration for half-maximal inhibition (IC50) under setting [3] was > 95 µM.
For `Cc1ccccc1-c1cnc(C(O)c2ccc(F)c(F)c2)[nH]1` (stereo not given), the IC50 runs as follows: (AlphaScreen, mean of runs) > 100 µM (inactive); under setting [1], > 100 µM; (FP, mean of runs) > 95 µM (inactive); under setting [2], > 95 µM; under setting [3], > 95 µM.
For the compound `CCOC(=O)Cc1cnc(NC(=O)NC(C(=O)OCC)(c2ccccc2)C(F)(F)F)s1` (stereo not given), the IC50 entry (AlphaScreen, mean of runs) was “inactive”. Besides, the IC50 runs as follows: under setting [1], 25.1 µM; (FP, mean of runs) > 95 µM (inactive); under setting [2], > 95 µM; under setting [3], > 95 µM.
On to `O=C(O)CCSc1nnc(COc2cccc3cccnc23)n1-c1ccccc1`, for which the IC50 (AlphaScreen, mean of runs) was > 100 µM (inactive); the half-inhibitory concentration (IC50) under setting [1] was > 100 µM; the IC50 (FP, mean of runs) was > 95 µM (inactive); the IC50 under setting [2] is > 95 µM; the IC50 under setting [3] is > 95 µM.
For `O=C(NNC(=O)C1CCN(c2ncccn2)CC1)c1ccc(F)cc1`, the IC50 runs as follows: (AlphaScreen, mean of runs) > 100 µM (inactive); under setting [1], > 100 µM; (FP, mean of runs) > 95 µM (inactive); under setting [2], > 95 µM; under setting [3], > 95 µM.
`COc1ccc(-c2cc(C)no2)cc1S(=O)(=O)NCc1cccc(C)c1`: the IC50 was > 100 µM (inactive) (AlphaScreen, mean of runs); > 100 µM under setting [1]; > 95 µM (inactive) (FP, mean of runs); > 95 µM under setting [2]; > 95 µM under setting [3].
With `CCOC(=O)C[C@H]1c2cc(C(F)(F)F)ccc2S(=O)(=O)N1Cc1ccccc1`, the IC50 (AlphaScreen, mean of runs) was > 100 µM (inactive); the IC50 under setting [1] is > 100 µM; the IC50 (FP, mean of runs) is > 95 µM (inactive); the IC50 under setting [2] was > 95 µM; the IC50 under setting [3] is > 95 µM.
As to `Oc1ccc(-c2nc3ncccn3c2Nc2ccc3c(c2)OCO3)cc1`, the IC50 was > 100 µM (inactive) (AlphaScreen, mean of runs); > 100 µM under setting [1]; > 95 µM (inactive) (FP, mean of runs); > 95 µM under setting [2]; > 95 µM under setting [3].
For the compound `Cc1onc(-c2ccccc2)c1C(=O)Nc1c(C)n(C)n(-c2ccccc2)c1=O`, the IC50 runs as follows: (AlphaScreen, mean of runs) > 100 µM (inactive); under setting [1], > 100 µM; (FP, mean of runs) > 95 µM (inactive); under setting [2], > 95 µM; under setting [3], > 95 µM.
Turning to `Cc1cc(C)n(-c2nnc3n2N=C(c2c[nH]c4ccccc24)CS3)n1`, the IC50 is, setting by setting: (AlphaScreen, mean of runs) > 100 µM (inactive); under setting [1], > 100 µM; (FP, mean of runs) > 95 µM (inactive); under setting [2], > 95 µM; under setting [3], > 95 µM.
On to `COC(=O)c1ccn(C(=O)c2ccc(Cl)cc2)n1`, for which the IC50 is, setting by setting: (AlphaScreen, mean of runs) > 100 µM (inactive); under setting [1], > 100 µM; (FP, mean of runs) > 95 µM (inactive); under setting [2], > 95 µM; under setting [3], > 95 µM.
On to `COc1ccc(C(=O)N2CCC(C)(C(=O)NS(=O)(=O)C3CC3)C2)cc1F` (stereo not given), for which the IC50 was > 100 µM (inactive) (AlphaScreen, mean of runs); > 100 µM under setting [1]; > 95 µM (inactive) (FP, mean of runs); > 95 µM under setting [2]; > 95 µM under setting [3].
With `CCCNC(=O)[C@H]1N2C(=O)c3c(ccc(OC)c3OC)C2SC1(C)C` (stereo not given in full), the IC50 entry (AlphaScreen, mean of runs) was “inactive”. Besides, the IC50 is 62.5 µM under setting [1]; > 95 µM (inactive) (FP, mean of runs); > 95 µM under setting [2]; > 95 µM under setting [3].
Regarding `Cc1ccccc1-n1ncc2c1CC(C)(C)CC2NC(=O)c1ccncc1` (stereo not given), the IC50 is > 100 µM (inactive) (AlphaScreen, mean of runs); > 100 µM under setting [1]; > 95 µM (inactive) (FP, mean of runs); > 95 µM under setting [2]; > 95 µM under setting [3].
As to `CCn1ncc(Br)c1C(=O)N(C)C12CC3CC(CC(C3)C1)C2`, the IC50 is, setting by setting: (AlphaScreen, mean of runs) > 100 µM (inactive); under setting [1], > 100 µM; (FP, mean of runs) > 95 µM (inactive); under setting [2], > 95 µM; under setting [3], > 95 µM.
As for `CCCN(C(=O)Cn1c(C(F)(F)F)nc2ccccc21)C1CCS(=O)(=O)C1` (stereo not given), the IC50 (AlphaScreen, mean of runs) is 11.2 µM; the 50% inhibitory concentration (IC50) under setting [1] turned out to be 11.2 µM; the IC50 (FP, mean of runs) was > 95 µM (inactive); the IC50 under setting [2] was > 95 µM; the concentration for half-maximal inhibition (IC50) under setting [3] was > 95 µM.
Consider `COc1ccc([C@H]2/C=C\CN(S(C)(=O)=O)[C@@H](C)C(=O)N2Cc2ccc(F)cc2)cc1`, for which the IC50 is, setting by setting: (AlphaScreen, mean of runs) > 100 µM (inactive); under setting [1], > 100 µM; (FP, mean of runs) > 95 µM (inactive); under setting [2], > 95 µM; under setting [3], > 95 µM.

For the origin of these results see PubChem BioAssay AID651650 (Sanford-Burnham Center for Chemical Genomics, 2012).
